Experimental data as given in patent publication EP4382122A1, “PEPTIDE COMPLEX IPF-H2A FOR MODULATION IMMUNE FUNCTION OF THE HUMAN BODY” (Zhabilov, Harry H., priority 2022, dated 2024).
Read-outs that look alike come from different tables or passages of the source.

How the values were obtained:
Vero cells [1] = assay: Cytotoxicity on Vero cells, MTT Assay; settings: 72 h
Protocol: Using the solution, a series of dilutions are done ex tempore with a nutrient medium DMEM (Dulbecco's Modified Eagle Medium, Sigma-Aldrich, Germany), which includes 2% fetal bovine serum (FBS, Gibco) and 1% antibiotic solution (100 U/ml penicillin and 100 µg/ml streptomycin sulphate (Gibco, USA)) (working solutions), which solutions are then filtered through sterile antibacterial filters with a pore diameter of 0.45 µm. As a model system in the tests was used a kidney monolayer cell line of African Green Monkey (Cercopithecus aethiops).
Cells were cultured on DMEM nutrient medium with termoinactivated 10% FBS, 1% sodium pyruvate (Sigma- Aldrich, Germany) and antibiotics (penicillin (100 U/ml), streptomycin sulphate (100 µg/ml) (growingmedium). The cell cultures were incubated at 37 °C at 5% CO2 and the required humidity. The blending of the Vero cells was done at 1:3 - 1:5 at a density of about 2 × 10^5 cells/ml, then resuspended several times and transferred onto cell culture mattresses (25 cm^2). Before inoculating the cells with virus and/or IPF-H2A dilutions, the monolayer was washed three times with phosphate-buffered saline (PBS) with pH 7.4 for 1- 2 minutes, after which the solution was removed. All experiments were performed during the exponential phase of cell growth. […]

HSV-1/HSV-2 [2] = assay: CPE inhibition test, microscopic, HSV-1/HSV-2 in Vero cells (type not separated); type: cell-based; settings: infected Vero cells, at MNC, 72 hours of treatment
Protocol: Dose-dependent curves were derived to determine the inhibitory concentration leading to 50% inhibition of the viral cytopathic effect (IC50).
Initially, the antiviral activity of the IPF test substance was assessed by a CPE inhibition test. […] Cell cultures were observed daily under a light microscope as to theCPE development. […] The results of the experiments were evaluated on the basis of comparison with virus-free and no-added cells (cell control),and with cells infected with HSV-1/HSV-2 without substance addition (viral control).

HSV-1/HSV-2 [3] = assay: Infectious viral yield, HSV-1/HSV-2 in Vero cells (text, type not separated); type: cell-based
Vero cells [4] = assay: Cytotoxicity on Vero cells, microscopic observation of cell monolayer morphology; settings: 72 h
Protocol: For analysis of the anti-proliferative and potentially antiviral properties of the IPF-H2A complex, according to the present invention, in cell culture, IPF-H2A was dissolved to an initial concentration of 50 mg/ml (background solution). Using the solution, a series of dilutions are done ex tempore with a nutrient medium DMEM (Dulbecco's Modified Eagle Medium, Sigma-Aldrich, Germany), which includes 2% fetal bovine serum (FBS, Gibco) and 1% antibiotic solution (100 U/ml penicillin and 100 µg/ml streptomycin sulphate (Gibco, USA)) (working solutions), which solutions are then filtered through sterile antibacterial filters with a pore diameter of 0.45 µm. As a model system in the tests was used a kidney monolayer cell line of African Green Monkey (Cercopithecus aethiops). […]

HSV-1 (Victoria strain) [5] = assay: Infectious viral yield of HSV-1 in Vero cells (Reed and Muench titration)
Protocol: (§1) Viral strains were cultured in DMEM nutrient medium containing 2% FBS,1% antibiotic solution (100 U/ml penicillin G sodium and 100 µg/ml streptomycin sulphate).
(§2) Infectious virus titer was account for, also by Reed and Muench's method of final dilutions, and expressed as TCID50 (50% Tissue Culture Infectious Dose) and also quantitatively through the colorimetric MTT method. After triple freezing and thawing, the resulting virus- containing was centrifuged (2500 rpm/min, 15 min at 4 °C), aliquoted and frozen at -80°C.
(§3) Immediately prior to work, ten-fold logarithmic dilutions of the relevant virus strain were prepared in DMEM nutrient medium containing 2% FBS, 1% antibiotic solution (100 U/mL penicillin G sodium and 100 µg/mL streptomycin sulphate). When the cell monolayer reached between 70- 80% confluence (concentration 5 × 10^3 cells/well, usually after 24 h), the nutrient medium was removed from the wells. The cell monolayer was infected with the prepared viral dilutions of 0.1 mL. With each viral dilution, 4 wells were infected. The virus was adsorbed for 1 h ina thermostat at a temperature of 37°C, then to each well was added 0.1 mL of nutrient medium. Four wells containing uninfected cells were used for cell control. Thus treated plate was incubated in a thermostat at a temperature of 37°C and at the required humidity. In the event of a cytopathic effect (CPE) (appearance of round cells, unevenly disseminated in the cell monolayer, with a tendency to formfoci), it was waited until the development of 2-3 + (50 - 75% of the cell monolayer) or until it stopped progressing. The viral infection titer is expressed as TCID50 (50% Tissue Culture Infectious Dose). The presence or absence of a viral cytopathic effect is determined by the following formula: T = (logofdilution,where%infectedisover50%) + (proportionalityfactor×logofdilutionfactor). […] Proportionality factor = [(%infectedover50%)−50%][(%infectedover50%)−(% infected below; 50%)].
(§4) Extracellular virus samples were titrated in a 24-hour Vero monolayer in 96-well plates, by taking into account the infectious viral titer in log10, according to the final dilution method of Reed & Muenh. Differences in infectious viral titers between experimental and control samples are expressed as Δlog. Based on the reported results, dose-response graphs were plotted and minimum inhibitory concentrations 50 (MIC50) were determined. Values of Δlog10 ≥ 1 are considered to be reliable results for the performed tests.

HSV-2 (Bja strain) = assay: Infectious viral yield of HSV-2 in Vero cells (Reed and Muench titration)
Protocol: as §1, §2, §3, §4

HSV-1 (Victoria strain) [6] = assay: CPE inhibition test with MTT Assay, HSV-1 in Vero cells; type: cell-based, Herpes Simplex virus type 1 (HSV-1)
HCoV-229E [7] = type: cell-based, human coronavirus HCoV-229E
[8] = system: human embryonic lung (Lep) cell line; assay: Cytotoxicity on Lep cells, MTT test; design: CD50: unit not given beside the values
[9] = system: human embryonic lung (Lep) cell line; assay: Cytotoxicity on Lep cells, microscopic surveillance of cell monolayer morphology; settings: 96 hours
Protocol: As a model system is used monolayer of human embryonic lung (Lep) cell line. The cells are cultivated in DMEM with added thermally inactivated 10% FBS, 1% Sodium pyruvate (Sigma-Aldrich, Germany) and antibiotics (penicillin- 100 U/ml), streptomycin sulphate (100 µg/ml) (growth medium) and the cell cultures are incubated at 37°C in 5% CO2 and in the presence of the required humidity.
MTT analysis of the cell survival and proliferation was performed in a wide range of concentrations of the tested substance. […] The test substance is applied in concentration range 0.0001- 1 mg/ml, while the anti-nfluenza medicine Tamiflu® - 0.001- 7.5 mg/ml for 96 hours. The untreated Lep cells whose survival was accepted as 100%, were used as a negative control. […] The analysis of the cell morphology surveillance is synchronized with the MTT analysis of the cell surveillance.

HCoV-229E [10] = type: cell-based, human coronavirus HCoV-229E; settings: for Δlog10: HCoV-229E, vs virus control

Nc1nc2c(ncn2COCCO)c(=O)[nH]1 [ACV, 2-amino-1,9-dihydro-9-((2-hydroxyethoxy)methyl)-6H-purin-6-one]
CD50 (Vero cells [1]): 0.5 ± 0.1 mg/mL
CPE suppression of HSV-1/HSV-2 (HSV-1/HSV-2 [2]): less pronounced CPE inhibitory effect
concentration range that effectively inhibits the yield of infectious viral progeny / replication (HSV-1/HSV-2 [3]): 0.00001 to 1 mg/mL
CD50 (Vero cells [4]): 0.5 ± 0.02 mg/mL
Viral yield (log10 TCID50) (HSV-1 (Victoria strain) [5]; concentration 0.0005 mg/mL): 4.500 ± 0.763 log10 TCID50
Δlog10 (HSV-1 (Victoria strain) [5]; concentration 0.0005 mg/mL): 0.8
Viral yield (log10 TCID50) (HSV-1 (Victoria strain) [5]; concentration 0.005 mg/mL): 4.530 ± 0.166 log10 TCID50
Δlog10 (HSV-1 (Victoria strain) [5]; concentration 0.005 mg/mL): 0.8
Viral yield (log10 TCID50) (HSV-1 (Victoria strain) [5]; concentration 0.05 mg/mL): 4.300 ± 0.763 log10 TCID50
Δlog10 (HSV-1 (Victoria strain) [5]; concentration 0.05 mg/mL): 1.0
Viral yield (log10 TCID50) (HSV-1 (Victoria strain) [5]; concentration 0.1 mg/mL): 4.000 ± 0.288 log10 TCID50
Δlog10 (HSV-1 (Victoria strain) [5]; concentration 0.1 mg/mL): 1.6
Viral yield (log10 TCID50) (HSV-1 (Victoria strain) [5]; concentration 1 mg/mL): 2.7 ± 0.500 log10 TCID50
Δlog10 (HSV-1 (Victoria strain) [5]; concentration 1 mg/mL): 2.6
Viral yield (log10 TCID50) (HSV-2 (Bja strain); concentration 0.0005 mg/mL): 5.567 ± 0.000 log10 TCID50
Viral yield (log10 TCID50) (HSV-2 (Bja strain); concentration 0.005 mg/mL): 5.300 ± 0.288 log10 TCID50
Δlog10 (HSV-2 (Bja strain); concentration 0.005 mg/mL): 0.8
Viral yield (log10 TCID50) (HSV-2 (Bja strain); concentration 0.05 mg/mL): 4.500 ± 0.125 log10 TCID50
Δlog10 (HSV-2 (Bja strain); concentration 0.05 mg/mL): 1.0
Viral yield (log10 TCID50) (HSV-2 (Bja strain); concentration 0.1 mg/mL): 4.300 ± 0.237 log10 TCID50
Δlog10 (HSV-2 (Bja strain); concentration 0.1 mg/mL): 1.0
Viral yield (log10 TCID50) (HSV-2 (Bja strain); concentration 1 mg/mL): 4.005 ± 0.166 log10 TCID50
Δlog10 (HSV-2 (Bja strain); concentration 1 mg/mL): 1.3
% cellular protection at MNC (HSV-1 (Victoria strain) [6]; HSV-1 (Victoria strain), Vero cells, MTT Assay): 100%
protection (HSV-1 (Victoria strain) [6]; HSV-1 strain Victoria, concentration range of 0.0005- 0.01 mg/mL): 100%

CCOC(=O)C1=C[C@@H](OC(CC)CC)[C@H](NC(C)=O)[C@@H](N)C1 [Tamiflu, oseltamivir phosphate]
inhibition of CPE of HCoV-229E (HCoV-229E [7]): Less expressed CPE inhibition
CD50 ([8]; 96 hours, MTT test): 2.5 ±0.06
MNC ([8]; 96 hours, MTT test): 0.005 ± 0.15 mg/mL
toxicity relative to IPF-H2A peptide complex ([8]; comparison of cell survival data): twentyfold more toxic
CD50 [9]: 2.5 ±0.02
MNC [9]: 0.001 ± 0.6 mg/mL
concentration range that effectively inhibits the infectious viral yield / replication (HCoV-229E [10]): 0.00001 to 1 mg/mL
Δlog10 (HCoV-229E [10]; concentration 0.0001 mg/ml): 0.8
Δlog10 (HCoV-229E [10]; concentration 0.001 mg/ml): 1.3
Δlog10 (HCoV-229E [10]; concentration 0.01 mg/ml): 1.3
Δlog10 (HCoV-229E [10]; concentration 0.1 mg/ml): 1.3
Δlog10 (HCoV-229E [10]; concentration 1.0 mg/ml): 1.8
